{"source": "patent US20220334127A1", "about": "“IN VITRO METHOD FOR OBTAINING CLINICAL DATA IN PATIENTS SUFFERING FROM AN INFLAMMATORY DISEASE” (FUNDACIÓN PARA LA FORMACIÓN E INVESTIGACIÓN SANITARIAS DE …, priority 2019, published 2022)", "key": {"NLRP3 inflammasome": {"tested_on": "NLRP3 inflammasome", "test": "IL-1β release from BMDMs pre-treated, washed, LPS-primed and stimulated with nigericin", "format": "cell-based, mouse", "conditions": "P2X7-receptor-deficient macrophages (FIG. 6c)", "method": "FIG. 6. P2X7 receptor stimulation induces an impairment of the NLRP3 inflammasome in monocytes. (a-b) Percentage of monocytes with ASC-specks (a) and release of […] from PBMCs (b) isolated from healthy donor blood samples treated with ATP (3 mM, 30 min; ATP-pre), then washed and primed with or without LPS (1 μg/ml, 2 h) and then treated for 20 min with ATP (3 mM; ATP-post) or nigericin (10 μM) as indicated. (c) IL-1β release from wild type or P2rx7^−/− BMDMs treated as in a, but with 4 h LPS priming and 30 min of ATP or nigericin. (d) IL-1β release from wild type or P2rx7^−/− BMDMs treated for 30 min with antimycin A (5 μM) or FCCP (1 μM) and then washed and primed with LPS (1 μg/ml, 4 h) and then stimulated with nigericin (10 μM, 30 min) as indicated. (e) Expression of Nrlp3 and Illb genes analyzed by quantitative PCR from wild type or P2rx7^−/− BMDMs treated with ATP (3 mM, 30 min; ATP-pre), then washed and primed with or without LPS (100 ng/ml, 4 h). (f) Kaplan-Meier representation of wild type (top) or P2rx7^−/− (bottom) mice survival after sham operation (dotted line), or CLP operation (continuous line); some mice groups were i.p. injected with ATP (0.5 mg/g) 30 min before operation (dashed lines). Wild type CLP n=10, CLP+ATP n=8, sham n=4, sham+ATP n=4; P2rx7^−/− CLP n=4, CLP+ATP n=6, sham n=3. (g) IL-1β from peritoneal lavage (left) or bacterial load in blood (right) from wild type sham, CLP or CLP+ATP mice after 24 h. Each dot represents a single independent experiment (c,d), a sample from an individual healthy donor (a,b,e) or a single mouse (g); average±standard error is represented in panels a-e,g; *p<0.05; **p<0.01; ns, no significant difference (p>0.05); Mann-Whitney test was used for a,b,d,e; Kruskal-Wallis test was used for c; Long-rank test for f.\nFIG. 7. Mitochondrial dysfunction mediates P2X7 receptor induced NLRP3 inflammasome impairment. (a) Mitochondrial membrane depolarization in BMDMs treated with ATP (3 mM, 30 min), then washed out and incubated for the indicated times in the absence or presence of LPS (1 μg/ml) as indicated. […] (e) Representative histogram plot of HIF-1α staining (left) or quantification of HIF-1α mean intensity fluorescence increase (ΔMFI, right) in monocytes isolated from healthy donor blood samples and treated or not with ATP (1 mM, 30 min) in the presence or absence of AZ11645373 (10 μM) or PDTC (10 μM), and then washed and cultured for 2 h; non-stained monocytes (light grey, left). […] (g) Expression of HIF1A gene analyzed by quantitative PCR from control surgery group and septic patients PBMCs; septic patients are separated into NLRP3 non-immunocompromised (grey bar) and immunocompromised (black bar). […]"}, "P2X7 receptor": {"tested_on": "P2X7 receptor", "test": "Cecal ligation and puncture (CLP) sepsis model with i.p. ATP before operation", "format": "in vivo, mouse", "conditions": "wild type mice, ATP pre-treatment (FIG. 6g)", "method": "FIG. 6. P2X7 receptor stimulation induces an impairment of the NLRP3 inflammasome in monocytes. (a-b) Percentage of monocytes with ASC-specks (a) and release of […] from PBMCs (b) isolated from healthy donor blood samples treated with ATP (3 mM, 30 min; ATP-pre), then washed and primed with or without LPS (1 μg/ml, 2 h) and then treated for 20 min with ATP (3 mM; ATP-post) or nigericin (10 μM) as indicated. (c) IL-1β release from wild type or P2rx7^−/− BMDMs treated as in a, but with 4 h LPS priming and 30 min of ATP or nigericin. […] (e) Expression of Nrlp3 and Illb genes analyzed by quantitative PCR from wild type or P2rx7^−/− BMDMs treated with ATP (3 mM, 30 min; ATP-pre), then washed and primed with or without LPS (100 ng/ml, 4 h). […]\nThe University of Murcia Animal Research Ethical Committee approved animal procedures (ref 5/2014) and then the Animal Health Service of the General Directorate of Fishing and Farming of the Council of Murcia (Servicio de Sanidad Animal, Dirección General de Ganaderia y Pesca, Consejeria de Agricultura y Agua Región de Murcia) approved animal procedures with ref A1320140201. […] Buprenorphine (0.3 mg/kg) was administered intraperitoneally at the time of surgery and mice were monitored continuously until recovery from anesthesia. […] Then the number of bacterial colonies was counted and expressed as CFU/ml of serum."}, "monocytes": {"tested_on": "monocytes", "test": "Mitochondrial ROS production (MitoSOX) in human monocytes", "format": "cell-based", "conditions": "healthy donor monocytes, ATP 3 mM 30 min (FIG. 5f)"}}, "data": [{"smiles": "Nc1ncnc2c1ncn2[C@@H]1O[C@H](COP(=O)(O)OP(=O)(O)OP(=O)(O)O)[C@@H](O)[C@H]1O", "note": "[ATP, adenosine triphosphate]", "values": [{"measurement": "NLRP3 inflammasome inhibition when ATP applied before LPS priming", "setting": "NLRP3 inflammasome", "value": "did not present NLRP3 inflammasome inhibition"}, {"measurement": "bacterial load in the blood", "setting": "P2X7 receptor; 24 h after CLP", "value": "increased"}, {"measurement": "release of IL-1β into the mouse peritoneum", "setting": "P2X7 receptor; peritoneal lavage 24 h after CLP", "value": "decreased"}, {"measurement": "mitochondrial ROS production", "setting": "monocytes", "value": "an increase in mitochondrial ROS production"}]}]}
